Earlier results in US20070297988A1, “Optical probes for in vivo imaging” (priority 2006, published 2007).

How the values were obtained:
[1] = administered intravenously
[2] = degradation accelerated by light and heat

CC1(C)C(/C=C/C=C/C=C/C=C2\N(CCCCS(=O)(=O)O)c3ccc4ccccc4c3C2(C)C)=[N+](CCCCS(=O)(=O)[O-])c2ccc3ccccc3c21 [ICG, indocyanine green]
plasmatic half-life [1]: 2 to 4 min | protein binding [1]: extensive protein binding | stability in aqueous solution [2]: degraded in aqueous solution
